In patent publication US9376420B2 (YUHAN CORPORATION, priority 2012, dated 2016):
pEC50: −log10 of the molar value.

Target: T1, human LXRβ (Homo sapiens, UniProt P55055)
T1 construct: expressed in transfected cells; host or cells: HEK293 cells (ATCC CRL-1573), transient transfection with pFA-hLXRβ/GAL4 and pUAS
T1 sequence (P55055 222-460 limits assumed): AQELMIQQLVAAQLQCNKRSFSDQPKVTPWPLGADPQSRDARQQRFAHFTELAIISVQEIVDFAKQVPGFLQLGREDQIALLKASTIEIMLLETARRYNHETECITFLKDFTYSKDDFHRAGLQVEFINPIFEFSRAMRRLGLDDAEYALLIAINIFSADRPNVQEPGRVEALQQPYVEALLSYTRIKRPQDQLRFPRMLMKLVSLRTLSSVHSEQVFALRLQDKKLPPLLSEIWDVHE
Test: Assay for Transcriptional Activity of LXRβ (GAL4-hLXRβ LBD luciferase reporter, transient transfection)
Assay type: cell-based
Details: HEK293 cells transfected with pFA-hLXRβ/GAL4 and pUAS, 24 hours; for Emax: fold value in comparison with the control (DMSO-treated group); for pEC50: increase of transcriptional activity of LXRβ, average of three independent tests
Summary of the method: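 EC50 values, averaged over three independent runs, come from a four-parameter fit of 9-point half-log curves spanning 0.01–50 μM. Luciferase output was read in lysed HEK293 cells 24 h after dosing at 37 °C, following transient transfection with a GAL4-human LXRβ LBD fusion plus GAL4-responsive reporter.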

SMILES	Emax [fold]	pEC50
CS(=O)(=O)c1ccc(-c2cccc(C3CC(C(F)(F)C(F)(F)F)=NN3c3ccc(F)cc3F)c2)cc1 (centres unmarked) [Example 51, 1-(2,4-difluoro-phenyl)-5-(4′-methanesulfonyl-biphenyl-3-yl)-3-pentafluoroethyl-4,5-dihydro-1H-pyrazole]	61	5.61
Fc1ccc(N2N=C(C(F)(F)C(F)(F)F)CC2c2cccc(-c3ccc(C(F)(F)F)nc3)c2)c(F)c1 (centres unmarked) [Example 72, 1-(2,4-difluoro-phenyl)-3-pentafluoroethyl-5-(3-(2-trifluoromethyl-pyridin-5-yl)-phenyl)-4,5-dihydro-1H-pyrazole]	9	4.82
CS(=O)(=O)c1cccc(-c2cccc(N3N=C(C(F)(F)C(F)(F)F)CC3c3ccc(F)cc3F)c2)n1 (centres unmarked) [Example 208, 5-(2,4-difluoro-phenyl)-1-[3-(6-methanesulfonyl-pyridin-2-yl)-phenyl]-3-pentafluoroethyl-4,5-dihydro-1H-pyrazole]	22	5.22
CS(=O)(=O)c1ccc(-c2ccc(F)c(C3CC(C(F)(F)C(F)(F)F)=NN3c3ccc(F)cc3F)c2)cn1 (centres unmarked) [Example 142, 1-(2,4-difluoro-phenyl)-5-[6-fluoro-3-(6-methanesulfonyl-pyridin-3-yl)-phenyl]-3-pentafluoroethyl-4,5-dihydro-1H-pyrazole]	73	6.74
CS(=O)(=O)c1ccc(-c2ccnc(C3CC(C(F)(F)C(F)(F)F)=NN3c3ccc(F)cc3F)c2)cn1 (centres unmarked) [Example 178, 1-(2,4-difluoro-phenyl)-5-[4-(6-methanesulfonyl-pyridin-3-yl)-pyridin-2-yl]-3-pentafluoroethyl-4,5-dihydro-1H-pyrazole]	82	6.27
OC(C1=NN(c2ccc(F)cc2F)C(c2ccc(-c3c(F)cc(-n4cnnn4)cc3F)cc2)C1)(C(F)(F)F)C(F)(F)F (centres unmarked) [Example 393, 1-(2,4-difluoro-phenyl)-5-{[2′,6′-difluoro-4′-(tetrazol-1-yl)-biphenyl]-4-yl}-3-[di-(trifluoromethyl)-hydroxy-methyl]-4,5-dihydro-1H-pyrazole]	8	6.10
CS(=O)(=O)c1cccc(-c2cncc(C3CC(C(F)(F)C(F)(F)F)=NN3c3ccc(F)cc3F)c2)c1 (centres unmarked) [Example 165, 1-(2,4-difluoro-phenyl)-5-[3-(3-methanesulfonyl-phenyl)-pyridin-5-yl]-3-pentafluoroethyl-4,5-dihydro-1H-pyrazole]	157	6.65
CSc1ccc(-c2ccc(F)c(C3CC(C(F)(F)C(F)(F)F)=NN3c3ccc(F)cc3F)c2)cn1 (centres unmarked) [Example 140, 1-(2,4-difluoro-phenyl)-5-[6-fluoro-3-(6-methylsulfanyl-pyridin-3-yl)-phenyl]-3-pentafluoroethyl-4,5-dihydro-1H-pyrazole]	143	5.75
CSc1cccc(-c2ccc(C3CC(C(F)(F)C(F)(F)F)=NN3Cc3ccccc3Cl)cc2)c1 (centres unmarked) [Example 15, 1-(2-chloro-benzyl)-5-(3′-methylsulfanyl-biphenyl-4-yl)-3-pentafluoroethyl-4,5-dihydro-1H-pyrazole]	23	4.83
CS(=O)(=O)c1ccc(-c2cncc(C3CC(C(F)(F)C(F)(F)F)=NN3c3ccc(F)cc3F)c2)cc1 (centres unmarked) [Example 162, 1-(2,4-difluoro-phenyl)-5-[3-(4-methanesulfonyl-phenyl)-pyridin-5-yl]-3-pentafluoroethyl-4,5-dihydro-1H-pyrazole]	59	5.53
CS(=O)(=O)c1ccc(-c2cccc(C3CC(C(F)(F)C(F)(F)F)=NN3c3ccc(F)cc3F)c2)cc1C(F)(F)F (centres unmarked) [Example 69, 1-(2,4-difluoro-phenyl)-5-(4′-methanesulfonyl-3′-trifluoromethyl-biphenyl-3-yl)-3-pentafluoroethyl-4,5-dihydro-1H-pyrazole]	83	5.96
Cl.OC(C1=NN(c2ccccc2Cl)C(c2ccc(C3=CCNCC3)s2)C1)(C(F)(F)F)C(F)(F)F (centres unmarked) [Example 417, 1-(2-chloro-phenyl)-5-[5-(1,2,3,6-tetrahydropyridin-4-yl)-thiophen-2-yl]-3-[di-(trifluoromethyl)-hydroxy-methyl]-4,5-dihydro-1H-pyrazole hydrochloride]	58	5.99
CS(=O)(=O)c1ccc(-c2ccnc(C3CC(C(F)(F)C(F)(F)F)=NN3c3ccc(F)cc3F)c2)cc1 (centres unmarked) [Example 174, 1-(2,4-difluoro-phenyl)-5-[4-(4-methanesulfonyl-phenyl)-pyridin-2-yl]-3-pentafluoroethyl-4,5-dihydro-1H-pyrazole]	119	6.27

Results, then the compound that gave them:

Emax [fold]	pEC50	SMILES
55	5.99	COc1ncc(-c2ccc(C3CC(C(O)(C(F)(F)F)C(F)(F)F)=NN3c3ccccc3Cl)cc2)cc1C=O (centres unmarked) [Example 274, 1-(2-chloro-phenyl)-5-[4-(5-formyl-6-methoxy-pyridin-3-yl)-phenyl]-3-[di-(trifluoromethyl)-hydroxy-methyl]-4,5-dihydro-1H-pyrazole]
55	6.50	CS(=O)(=O)c1ccc(-c2ccc(C3CC(C(O)(C(F)(F)F)C(F)(F)F)=NN3c3ccc(F)cc3F)cc2)cc1C#N (centres unmarked) [Example 390, 1-(2,4-difluoro-phenyl)-5-(3′-cyano-4′-methanesulfonyl-biphenyl-4-yl)-3-[di-(trifluoromethyl)-hydroxy-methyl]-4,5-dihydro-1H-pyrazole]
45	6.07	CC(C)CS(=O)(=O)N1CC=C(c2ccc(C3CC(C(O)(C(F)(F)F)C(F)(F)F)=NN3c3ccccc3Cl)cc2)CC1 (centres unmarked) [Example 302, 1-(2-chloro-phenyl)-5-{4-[1-(2-methyl-propane-1-sulfonyl)-1,2,3,6-tetrahydropyridin-4-yl]-phenyl}-3-[di-(trifluoromethyl)-hydroxy-methyl]-4,5-dihydro-1H-pyrazole]
21	5.39	CC(C)(C)OC(=O)N1CC=C(c2ccc(C3CC(C(O)(C(F)(F)F)C(F)(F)F)=NN3c3ccccc3Cl)c(F)c2)CC1 (centres unmarked) [Example 342, 1-(2-chloro-phenyl)-5-[2-fluoro-4-(1-BOC-1,2,3,6-tetrahydropyridin-4-yl)-phenyl]-3-[di-(trifluoromethyl)-hydroxy-methyl]-4,5-dihydro-1H-pyrazole]
39	6.20	CC(=O)c1cccc(-c2ccc(C3CC(C(O)(C(F)(F)F)C(F)(F)F)=NN3c3ccccc3Cl)cc2F)c1 (centres unmarked) [Example 361, 5-(3′-acetyl-2-fluoro-biphenyl-4-yl)-1-(2-chloro-phenyl)-3-[di-(trifluoromethyl)-hydroxy-methyl]-4,5-dihydro-1H-pyrazole]
36	6.09	COc1ccc(-c2ccc(C3CC(C(O)(C(F)(F)F)C(F)(F)F)=NN3c3ccc(F)cc3F)cc2)cn1 (centres unmarked) [Example 370, 1-(2,4-difluoro-phenyl)-5-(4-(6-methoxy-pyridin-3-yl)-phenyl)-3-[di-(trifluoromethyl)-hydroxy-methyl]-4,5-dihydro-1H-pyrazole]
59	6.35	N#Cc1ccc(-c2ccc(C3CC(C(O)(C(F)(F)F)C(F)(F)F)=NN3c3ccccc3Cl)cc2)cn1 (centres unmarked) [Example 267, 1-(2-chloro-phenyl)-5-[4-(6-cyano-pyridin-3-yl)-phenyl]-3-[di-(trifluoromethyl)-hydroxy-methyl]-4,5-dihydro-1H-pyrazole]
56	6.20	CN(C)S(=O)(=O)c1cccc(-c2ccc(C3CC(C(O)(C(F)(F)F)C(F)(F)F)=NN3c3ccccc3Cl)cc2)c1 (centres unmarked) [Example 284, 1-(2-chloro-phenyl)-5-(3′-dimethylsulfamoyl-biphenyl-4-yl)-3-[di-(trifluoromethyl)-hydroxy-methyl]-4,5-dihydro-1H-pyrazole]
94	6.33	OC(C1=NN(c2ccccc2Cl)C(c2ccc(-c3ccc(F)cc3)nc2)C1)(C(F)(F)F)C(F)(F)F (centres unmarked) [Example 353, 1-(2-chloro-phenyl)-5-[6-(4-fluoro-phenyl)-pyridin-3-yl]-3-[di-(trifluoromethyl)-hydroxy-methyl]-4,5-dihydro-1H-pyrazole]
45	6.00	CC(=O)c1ccccc1-c1ccc(C2CC(C(O)(C(F)(F)F)C(F)(F)F)=NN2c2ccccc2Cl)cn1 (centres unmarked) [Example 348, 5-[6-(2-acetyl-phenyl)-pyridin-3-yl]-1-(2-chloro-phenyl)-3-[di-(trifluoromethyl)-hydroxy-methyl]-4,5-dihydro-1H-pyrazole]
72	7.68	O=C(CCC1CCCC1)N1CC=C(c2cccc(C3CC(C(O)(C(F)(F)F)C(F)(F)F)=NN3c3ccccc3Cl)c2)CC1 (centres unmarked) [Example 233, 1-(2-chloro-phenyl)-5-{3-[1-(3-cyclopentyl-propionyl)-1,2,3,6-tetrahydropyridin-4-yl]-phenyl}-3-[di-(trifluoromethyl)-hydroxy-methyl]-4,5-dihydro-1H-pyrazole]
49	7.89	O=C(c1cccs1)N1CC=C(c2cccc(C3CC(C(O)(C(F)(F)F)C(F)(F)F)=NN3c3ccccc3Cl)c2)CC1 (centres unmarked) [Example 234, 1-(2-chloro-phenyl)-5-{3-[1-(thiophene-2-carbonyl)-1,2,3,6-tetrahydropyridin-4-yl]-phenyl}-3-[di-(trifluoromethyl)-hydroxy-methyl]-4,5-dihydro-1H-pyrazole]
